The values below are quoted from earlier work in patent US8822536B2, “Dietary supplements containing terpenoid acids of maslinic acid or oleanolic acid and process for enhancing muscle mass in mammals” (FHG Corporation d/b/a Integrity Nutraceuticals, priority 2009, dated 2014).

Structures are written as SMILES.

For series [1], the system named is trout.
Series [2] relates to juvenile dentex fish. The following applies: 80 mg kg-1.
In series [3] the test system is rainbow trout liver.
Series [4] deals with T1, glycogen phosphorylase (Oryctolagus cuniculus, UniProt P00489).
T1 sequence (P00489 2-843 limits assumed): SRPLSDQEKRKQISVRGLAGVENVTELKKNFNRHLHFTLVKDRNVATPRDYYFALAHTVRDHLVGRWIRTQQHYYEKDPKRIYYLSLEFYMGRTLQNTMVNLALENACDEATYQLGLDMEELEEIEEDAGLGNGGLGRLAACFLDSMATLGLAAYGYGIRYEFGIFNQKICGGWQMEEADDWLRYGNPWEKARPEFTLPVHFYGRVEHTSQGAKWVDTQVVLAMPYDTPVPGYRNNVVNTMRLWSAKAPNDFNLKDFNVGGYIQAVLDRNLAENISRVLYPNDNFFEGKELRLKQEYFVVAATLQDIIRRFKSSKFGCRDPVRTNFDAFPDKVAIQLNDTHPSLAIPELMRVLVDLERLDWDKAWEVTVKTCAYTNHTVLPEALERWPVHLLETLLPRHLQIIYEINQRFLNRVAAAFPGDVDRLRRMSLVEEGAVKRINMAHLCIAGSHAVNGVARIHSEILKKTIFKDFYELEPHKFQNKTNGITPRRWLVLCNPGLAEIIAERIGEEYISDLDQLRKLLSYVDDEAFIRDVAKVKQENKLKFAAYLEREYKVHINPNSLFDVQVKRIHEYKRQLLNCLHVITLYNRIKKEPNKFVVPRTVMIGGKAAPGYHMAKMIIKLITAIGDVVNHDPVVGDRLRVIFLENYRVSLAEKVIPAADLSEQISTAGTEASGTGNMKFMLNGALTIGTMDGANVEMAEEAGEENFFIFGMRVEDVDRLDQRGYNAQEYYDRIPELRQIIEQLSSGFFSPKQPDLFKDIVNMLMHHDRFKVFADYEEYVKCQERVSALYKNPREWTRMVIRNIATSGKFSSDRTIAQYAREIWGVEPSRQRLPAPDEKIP

The mark [5] stands for this setting: trout fed 250 mg kg-1, with respect to a control.
Setting [6] is: trout fed 25 and 250 mg kg-1, white muscle.

For the compound `CC1(C)CC[C@]2(C(=O)O)CC[C@]3(C)C(=CC[C@@H]4[C@@]5(C)C[C@@H](O)[C@H](O)C(C)(C)[C@@H]5CC[C@]43C)[C@@H]2C1` [maslinic acid, 2-α,3-β-dihydroxyolean-12-en-28-oic acid], in series [1] (dietary maslinic acid, trout), the “protein degradation rate, relative (KD) and absolute (AD)” value was “stimulated”; the protein synthesis result is “induces higher protein synthesis”. Moreover, in series [1] (setting [5]), the “feed-efficiency ratio (FER)” value is recorded as “increased” and the “protein-efficiency ratio (PER)” value was “increased”. In series [1] (setting [6]), the “absolute protein-degradation rate (AD)” value is “only a minor increase”; the “fractional protein-degradation rate (KD)” value is “no significant changes”; the “protein-synthesis rate (KS and AS)” value is “increased”. Further, the “protein-accumulation rates (KG and AG)” value in series [1] (trout fed with maslinic acid) is “high protein-accumulation rates”. Moreover, in series [2], the “growth of juvenile dentex fish” value is given as “retard”. Moreover, the “accumulation of glycogen in liver” value in series [3] was “high accumulation of glycogen”. Also, the glycogen phosphorylase inhibition entry in series [4] is listed as “new type of glycogen phosphorylase inhibitor”.
